Data published in patent US4950647A, “T cell immunopotentiator” (Nucleic Acid Research Institute, priority 1988, dated 1990).

Legend:
[1] = test system: human lymphocytes (peripheral blood mononuclear cells); assay: Mitogenic activity (3H-thymidine incorporation); format: cell-based
Protocol: (§1) Peripheral blood mononuclear cells were isolated from heparinized peripheral blood of normal healthy donors as described in Sharma, B. and S. Gupta, "Antigen-specific primary cytotoxic T lymphocyte response in acquired immune deficiency syndrome (AIDS) and AIDS related complex", Clin. Exp. Immunol., 62:296, 1985. Briefly, blood was diluted 1:1 with Hanks balanced salt solution (HBSS). Peripheral blood mononuclear cells were separated on a Ficoll-Hypaque gradient. The peripheral blood mononuclear cells recovered from the interface were washed three times with HBSS and resuspended in RPMI-1640 containing 100 U/ml penicillin, 100 μg/ml streptomycin 2mM L-glutamine (GIBCO, Grand Island, N.Y.), and 10% heat-inactivated pooled A serum (Irvine Scientific, Irvine, Calif.), hereafter referred as complete medium (CM).
The ability of 6-amino-(2-deoxy-α-D-erythro-pentofuranosyl)-imidazo[4,5,-C]pyridin- 4-one to activate lymphocytes was determined by culturing the cells with and without this compound. Peripheral blood mononuclear cells (1×10^5 /0.2 ml) were cultures in 96 well microtiter plates (Corning, N.Y.) for 72-96 hrs at 37° C. in 5% CO2 humid atmosphere and then for an additional 16 hr in the presence of 1 μCi/well [^3 H] thymidine (ICN Pharmaceuticals, Inc., Irvine, Calif.). Cells were harvested on glass fiber filter paper using a cell harvester (Skatron, Lier, Norway). The radioactivity was measured in a scintillation counter after suspending the dried filter in scintillation fluid.
To determine whether 6-amino-(2-deoxy-α-D-erythro-pentofuranosyl)-imidazo[4,5,-C]pyridin- 4-one directly activates lymphocytes to proliferate, peripheral blood mononuclear cells were cultured with or without this compound as described in the above methods section.

[2] = test system: human lymphocytes (peripheral blood mononuclear cells); assay: Phytohemagglutinin (PHA) induced lymphocyte proliferation; format: cell-based
Protocol: as §1
The ability of the compound 6-amino-(2-deoxy-α-D-erythropentofuranosyl)-imidazo[4,5,-C]pyridin-4-one to modulate lymphocyte response to plant mitogens was determined by the modified procedure of Sharma, B., O. Kohashi, M. R. Mickey, and P. T. Terasaki, "Effect of water soluble adjuvants on in vitro lymphocyte immunization", Cancer Res. 35:666, 1975. Peripheral blood mononuclear cells were cultured for 72-96 hr with phytohemagglutinin (Difco, Detroit, Mich.), Concanavalin A (Calbiochem, Calif.) or Pokeweed mitogen (GIBCO, Grand Island, N.Y.) in the presence and absence of 6-amino-(2-deoxy-α-D-erythro-pentofuranosyl)-imidazo[4,5,-C]pyridin- 4-one. The culture were set up in quadruplicate and pulsed with [^3 H]-thymidine for 16 hr and the [^3 H] thymidine incorporation was determined.
Lymphocytes from different donors where incubated with various concentration of phytohemagglutinin in absence and presence of 6-amino-(2-deoxy-α-D-erythro-pentofuranoxyl)imidazo-[4,5,-C]pyridin- 4-one.
[…] Lymphocyte proliferation was determined by ^3 H-thymidine incorporation.

[3] = test system: T lymphocytes (peripheral blood mononuclear cells); assay: Cyclosporin A induced suppression of lymphocyte response to Concanavalin A, and its restoration; format: cell-based, human; conditions: FIG. 4; Con A
Protocol: Briefly, blood was diluted 1:1 with Hanks balanced salt solution (HBSS). Peripheral blood mononuclear cells were separated on a Ficoll-Hypaque gradient.
Cultures were pulsed for 16 hr and [^3 H]-thymidine incorporation was measured.
Peripheral blood mononuclear cells from normal donors were incubated with T cell mitogens in the presence and absence of this compound and then [^3 H-thymidine incorporation was measured.
Lymphocytes proliferation was determined by ^3 H-thymidine incorporation.

[4] = Revankar et al. 1984; cited from earlier work
[5] = Revankar et al. 1984; cited from earlier work; remark: listed apart in the source
[6] = donor 2, PHA 0.25 mg/0.2 ml, compound (0.1)
[7] = donor 2, PHA 1.0 mg/0.2 ml, compound (0.05)
[8] = donor 2, PHA 4.0 mg/0.2 ml, compound (0.038)
[9] = donor 3, PHA 0.25 mg/0.2 ml, compound (0.4)
[10] = donor 3, PHA 1.0 mg/0.2 ml, compound (0.2)
[11] = donor 3, PHA 1.0 mg/0.2 ml, compound (0.4)
[12] = donor 3, PHA 4.0 mg/0.2 ml, compound (0.2)
[13] = donor 3, PHA 4.0 mg/0.2 ml, compound (0.4)
[14] = donor 4, PHA 0.25 mg/0.2 ml, compound (0.4)
[15] = donor 4, PHA 1.0 mg/0.2 ml, compound (0.05)
[16] = donor 4, PHA 1.0 mg/0.2 ml, compound (0.4)
[17] = donor 4, PHA 4.0 mg/0.2 ml, compound (0.4)
[18] = donor 5, PHA 0.5 mg/0.2 ml, compound (0.05)
[19] = donor 5, PHA 1.0 mg/0.2 ml, compound (0.2)
[20] = donor 5, PHA 4.0 mg/0.2 ml, compound (0.2)
[21] = donor 6, PHA 0.5 mg/0.2 ml, compound (0.05)
[22] = donor 7, PHA 0.125 mg/0.2 ml, compound (0.4)
[23] = donor 7, PHA 0.125 mg/0.2 ml, compound (1.0)

Nc1cc2c(ncn2[C@@H]2C[C@H](O)[C@@H](CO)O2)c(O)n1 [Test Compound, 6-amino-1-(2-deoxy-α-D-erythro-pentofuranosyl)imidazo[4,5-C]-pyridin-4-one]
increase in the proliferation of peripheral blood mononuclear cells ([1]; 0.006 mM to 0.4 mM, several donors): no significant increase
stimulation of lymphocytes to proliferate ([1]; 1 mM): failed to stimulate lymphocytes to proliferate
direct stimulation of lymphocytes to proliferate ([1]; by itself): unable to directly stimulate lymphocytes to proliferate
3H-thymidine incorporation ([1]; donor 1, 0.006 mM): 212 ± 96 Counts per minute
3H-thymidine incorporation ([1]; donor 1, 0.025 mM): 494 ± 267 Counts per minute
3H-thymidine incorporation ([1]; donor 1, 0.050 mM): 306 ± 106 Counts per minute
3H-thymidine incorporation ([1]; donor 1, 0.2 mM): 246 ± 99 Counts per minute
3H-thymidine incorporation ([1]; donor 1, 0.4 mM): 320 ± 46 Counts per minute
3H-thymidine incorporation ([1]; donor 2, 0.006 mM): 262 ± 68 Counts per minute
3H-thymidine incorporation ([1]; donor 2, 0.025 mM): 273 ± 122 Counts per minute
3H-thymidine incorporation ([1]; donor 2, 0.050 mM): 257 ± 67 Counts per minute
3H-thymidine incorporation ([1]; donor 3, 0.006 mM): 266 ± 42 Counts per minute
3H-thymidine incorporation ([1]; donor 3, 0.025 mM): 252 ± 112 Counts per minute
3H-thymidine incorporation ([1]; donor 3, 0.050 mM): 180 ± 37 Counts per minute
3H-thymidine incorporation ([1]; donor 4, 0.006 mM): 246 ± 61 Counts per minute
3H-thymidine incorporation ([1]; donor 4, 0.025 mM): 237 ± 55 Counts per minute
3H-thymidine incorporation ([1]; donor 4, 0.050 mM): 240 ± 35 Counts per minute
3H-thymidine incorporation ([1]; donor 5, 0.006 mM): 238 ± 63 Counts per minute
3H-thymidine incorporation ([1]; donor 5, 0.025 mM): 121 ± 55 Counts per minute
3H-thymidine incorporation ([1]; donor 5, 0.050 mM): 841 ± 310 Counts per minute
3H-thymidine incorporation ([1]; donor 5, 0.2 mM): 277 ± 51 Counts per minute
3H-thymidine incorporation ([1]; donor 5, 0.4 mM): 165 ± 64 Counts per minute
3H-thymidine incorporation ([1]; donor 6, 0.006 mM): 486 ± 51 Counts per minute
3H-thymidine incorporation ([1]; donor 6, 0.025 mM): 508 ± 140 Counts per minute
3H-thymidine incorporation ([1]; donor 6, 0.050 mM): 650 ± 130 Counts per minute
3H-thymidine incorporation ([1]; donor 6, 0.2 mM): 620 ± 322 Counts per minute
3H-thymidine incorporation ([1]; donor 6, 0.4 mM): 395 ± 22 Counts per minute
3H-thymidine incorporation ([1]; donor 7, 0.006 mM): 1133 ± 257 Counts per minute
3H-thymidine incorporation ([1]; donor 7, 0.025 mM): 1667 ± 254 Counts per minute
3H-thymidine incorporation ([1]; donor 7, 0.050 mM): 772 ± 137 Counts per minute
3H-thymidine incorporation ([1]; donor 7, 0.2 mM): 657 ± 137 Counts per minute
3H-thymidine incorporation ([1]; donor 7, 0.4 mM): 702 ± 189 Counts per minute
activity in augmenting phytohemagglutinin response compared with interleukin-2 ([2]; Table III): equals that of interleukin-2
potentiation of lymphocyte response to phytohemagglutinin ([2]; all the 5 donors examined): striking potentiation
3H-thymidine incorporation in PHA-stimulated cultures [2, 6]: 56362 ± 8650 Counts per minute
% Potentiation [2, 6]: 294%
3H-thymidine incorporation in PHA-stimulated cultures [2, 7]: 110155 ± 5101 Counts per minute
% Potentiation [2, 7]: 41%
3H-thymidine incorporation in PHA-stimulated cultures [2, 8]: 127102 ± 3001 Counts per minute
% Potentiation [2, 8]: 53%
3H-thymidine incorporation in PHA-stimulated cultures [2, 9]: 34646 ± 6344 Counts per minute
% Potentiation [2, 9]: 1074%
3H-thymidine incorporation in PHA-stimulated cultures [2, 10]: 77757 ± 18381 Counts per minute
% Potentiation [2, 10]: 295%
3H-thymidine incorporation in PHA-stimulated cultures [2, 11]: 61653 ± 12029 Counts per minute
% Potentiation [2, 11]: 213%
3H-thymidine incorporation in PHA-stimulated cultures [2, 12]: 88518 ± 7387 Counts per minute
% Potentiation [2, 12]: 144%
3H-thymidine incorporation in PHA-stimulated cultures [2, 13]: 97950 ± 6240 Counts per minute
% Potentiation [2, 13]: 170%
3H-thymidine incorporation in PHA-stimulated cultures [2, 14]: 28765 ± 4475 Counts per minute
% Potentiation [2, 14]: 1171%
3H-thymidine incorporation in PHA-stimulated cultures [2, 15]: 50131 ± 4674 Counts per minute
% Potentiation [2, 15]: 88%
3H-thymidine incorporation in PHA-stimulated cultures [2, 16]: 91669 ± 7462 Counts per minute
% Potentiation [2, 16]: 244%
3H-thymidine incorporation in PHA-stimulated cultures [2, 17]: 119811 ± 2608 Counts per minute
% Potentiation [2, 17]: 91%
3H-thymidine incorporation in PHA-stimulated cultures [2, 18]: 66109 ± 2263 Counts per minute
% Potentiation [2, 18]: 71%
3H-thymidine incorporation in PHA-stimulated cultures [2, 19]: 79690 ± 3113 Counts per minute
% Potentiation [2, 19]: 79%
3H-thymidine incorporation in PHA-stimulated cultures [2, 20]: 93966 ± 6505 Counts per minute
% Potentiation [2, 20]: 103%
3H-thymidine incorporation in PHA-stimulated cultures [2, 21]: 16156 ± 3600 Counts per minute
% Potentiation [2, 21]: 110%
3H-thymidine incorporation in PHA-stimulated cultures [2, 22]: 25657 ± 2488 Counts per minute
% Potentiation [2, 22]: 353%
3H-thymidine incorporation in PHA-stimulated cultures [2, 23]: 23582 ± 3903 Counts per minute
% Potentiation [2, 23]: 317%
reversal of Cyclosporin A mediated suppression [3]: completely reversed
antitumor activity [4]: devoid of any useful antitumor activity
in vitro antiviral activity [5]: limited in vitro antiviral activity
